Experimental data reported in patent US20190055231A1, “BACE1 INHIBITORS” (Hoffmann-La Roche Inc., priority 2016, published 2019).

Experiments:
BACE1 [1] = target: T1, BACE1 (Homo sapiens, UniProt P56817); assay: Cellular Aβ-lowering assay (Abeta 40 AlphaLISA, HEK293 APP cells); format: cell-based; design: endogenous in cells; host or cells: HEK293 APP cells; conditions: HEK293 APP cells, Aβ40 in supernatant; read-out: BACE1 cell act. Aβ40 IC50
Protocol: Cellular Aβ-Lowering Assay:
The Abeta 40 AlphaLISA Assay can be used. The HEK293 APP cells were seeded in 96 well Microtiter plates in cell culture medium (Iscove's, plus 10% (v/v) fetal bovine serum, penicillin/streptomycin) to about 80% confluency and the compounds were added at a 3× concentration in ⅓ volume of culture medium (final DMSO concentration was kept at 1% v/v). After 18-20 hrs incubation at 37° C. and 5% CO2 in a humidified incubator, the culture supernatants were harvested for the determination of AP 40 concentrations using Perkin-Elmer Human Amyloid beta 1-40 (high specificity) Kit (Cat#AL275C).
In a Perkin-Elmer White Optiplate-384 (Cat#6007290), 2 ul culture supernatants were combined with 2 μl of a 10× AlphaLISA Anti-hAP Acceptor beads+Biotinylated Antibody Anti-Aβ 1-40 Mix (50 μg/mL/5 nM). After 1 hour room temperature incubation, 16 μl of a 1.25× preparation of Streptavidin (SA) Donor beads (25 μg/mL) were added and incubated for 30 minutes in the Dark. Light Emission at 615 nm was then recorded using EnVision-Alpha Reader. Levels of AP 40 in the culture supernatants were calculated as percentage of maximum signal (cells treated with 1% DMSO without inhibitor). The IC50 value were calculated using the Excel XLfit software.
Cellular Aβ-Lowering Assay (Cell-Based Assay)
The determination of BACE1 activity can be either measured by using an enzymatic cell-free fluorescence assay (BACE1 cell free, table 2) or by a whole cell assay using HEK293 APP cells (Cellular Aβ-lowering, table 2). Both assays are suitable to determine BACE1 inhibition.

BACE1 [2] = target: T1, BACE1; assay: BACE1 KD SPR assay; format: binding; conditions: Surface Plasmon Resonance
Protocol: Surface Plasmon Resonance measurements were performed on a Biacore T200 instrument. Immobilization of BACE-1 was performed by standard amine coupling chemistry on a CMS sensor to achieve protein surface density of ˜8000 pg/mm2 (RU). Immobilization was performed using the acetate buffer (25 mM Na acetate, 150 mM NaCl, 0.01% P20, 3 mM EDTA, pH 4.5) as the running buffer at 25° C. In the first step the carboxyl groups of CMS sensor surface were transformed to the reactive succinimide esters by contacting the sensor surface 7 minutes with a solution of 0.2 M N-ethyl-N-dimethylaminopolycarboodiimide (EDC) and 0.05 M N-hydroxysuccinimide (NHS). After the activation, the sensor surface was contacted with (˜5 μgml-1 BACE1 protein solution in 10 mM sodium acetate coupling buffer (pH 4.5) to reach desired protein surface density. Finally, the excess of activated carboxylic groups on the surface was quenched with ethanolamine (1 M, pH 8.5, 7 min).
Binding assays were performed at 18° C. under the same buffer conditions as immobilization of the protein. Compounds were dissolved in DMSO as 10 mM stocks and diluted in running buffer to perform titration series (5 concentrations with dilution factor of 2) on a protein and reference (activated and deactivated CMS sensor surface) surfaces in parallel.

Plasma Aβ40 = assay: Cynomolgus monkey plasma Aβ40 determination; format: in vivo, Cynomolgus monkey (Macacaca fascicularis)
From the text: Cynomolgus Monkey (Macacaca fascicularis) Single Dose PK Study and Plasma Aβ40 Determination
Blood and plasma collection will always be performed in the treatment cage. The animal care keeper grabs either one arm or one leg through the bars. The hairs are shaved for better visibility of the vein. The blood vessel is squeezed, the vein is punctured by using a butterfly and blood is taken. Once enough blood has been withdrawn a cotton swab is placed over the injection site and the needle is gently removed. Bleeding is stopped by pressing a cotton swab on the wound. Plasma samples were taken between 5 min and 48 h.
Blood is transferred into a labeled EDTA-K2 Eppendorf tube and the sample is mixed by inverting the tubes several times. Blood is stored at −20° C.
Aβ determination in cynomolgous plasma samples was done after solid phase extraction (Lanz, T. et al., J. of Neuroscience Methods, 2006, 157:71-81). Frozen plasma samples were thawed in a 25° C. waterbath. […] Once samples were dried, they were stored at −80° C. or measured immediately. […]
Aβ concentration was determined following a modified protocol from Perkin-Elmer with a commercially available antibody against the N-terminal part of cynomolgus Aβ (6E10, Signet IG-39340) and an in-house C-terminal specific anti-Aβ40 antibody (BAP-24, Brockhaus M. et al., J. Neuroreport, 1998, 9:1481-1486). […]

Mouse P-gp = Mouse P-gp (Mus musculus, UniProt P21447); assay: P-gp transport assay (mouse); format: in vitro ADME; conditions: efflux ratio
Mouse P-gp, sequence (P21447 whole entry): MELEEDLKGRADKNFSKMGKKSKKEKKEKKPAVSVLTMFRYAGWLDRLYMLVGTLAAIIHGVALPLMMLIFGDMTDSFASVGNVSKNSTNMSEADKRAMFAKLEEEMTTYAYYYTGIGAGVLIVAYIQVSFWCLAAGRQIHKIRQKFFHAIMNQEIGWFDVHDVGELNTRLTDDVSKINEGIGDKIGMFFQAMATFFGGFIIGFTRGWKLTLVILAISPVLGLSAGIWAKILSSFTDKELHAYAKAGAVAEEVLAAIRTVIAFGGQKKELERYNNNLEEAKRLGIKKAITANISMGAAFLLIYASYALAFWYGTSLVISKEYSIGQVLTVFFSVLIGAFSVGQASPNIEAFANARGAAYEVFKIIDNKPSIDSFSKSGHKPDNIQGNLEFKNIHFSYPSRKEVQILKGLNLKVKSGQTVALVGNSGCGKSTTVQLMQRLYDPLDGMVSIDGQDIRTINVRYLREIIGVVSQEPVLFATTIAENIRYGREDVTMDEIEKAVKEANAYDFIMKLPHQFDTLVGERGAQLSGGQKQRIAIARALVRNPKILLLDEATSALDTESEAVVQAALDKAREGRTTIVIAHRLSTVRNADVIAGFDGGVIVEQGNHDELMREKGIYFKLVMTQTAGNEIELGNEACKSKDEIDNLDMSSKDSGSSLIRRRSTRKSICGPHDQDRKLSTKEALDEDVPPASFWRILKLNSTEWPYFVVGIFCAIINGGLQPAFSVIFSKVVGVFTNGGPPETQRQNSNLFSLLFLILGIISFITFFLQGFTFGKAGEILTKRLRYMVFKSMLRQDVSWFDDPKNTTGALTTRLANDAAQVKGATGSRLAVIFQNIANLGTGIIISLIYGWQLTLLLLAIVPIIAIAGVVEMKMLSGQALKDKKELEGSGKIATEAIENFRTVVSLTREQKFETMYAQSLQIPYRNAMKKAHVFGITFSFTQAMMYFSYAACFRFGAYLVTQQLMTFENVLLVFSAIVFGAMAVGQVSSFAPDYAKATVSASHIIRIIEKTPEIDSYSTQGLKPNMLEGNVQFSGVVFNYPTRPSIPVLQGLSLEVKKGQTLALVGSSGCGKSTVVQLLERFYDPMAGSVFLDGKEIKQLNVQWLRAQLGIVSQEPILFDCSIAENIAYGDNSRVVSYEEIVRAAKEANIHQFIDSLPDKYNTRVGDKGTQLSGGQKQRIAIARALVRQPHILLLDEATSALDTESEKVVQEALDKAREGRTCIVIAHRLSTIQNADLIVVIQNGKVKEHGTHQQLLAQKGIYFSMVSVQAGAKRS
From the text: P-Gp Transport Assay (Human and Mouse) (P-Gp Assay)
In the assay of the P-gp efflux ratio ER as described hereinabove, a compound with ER<2.5 is regarded most suitable. In addition, compounds with low hERG channel binding are suitable as well.

T1 sequence (P56817 46-501): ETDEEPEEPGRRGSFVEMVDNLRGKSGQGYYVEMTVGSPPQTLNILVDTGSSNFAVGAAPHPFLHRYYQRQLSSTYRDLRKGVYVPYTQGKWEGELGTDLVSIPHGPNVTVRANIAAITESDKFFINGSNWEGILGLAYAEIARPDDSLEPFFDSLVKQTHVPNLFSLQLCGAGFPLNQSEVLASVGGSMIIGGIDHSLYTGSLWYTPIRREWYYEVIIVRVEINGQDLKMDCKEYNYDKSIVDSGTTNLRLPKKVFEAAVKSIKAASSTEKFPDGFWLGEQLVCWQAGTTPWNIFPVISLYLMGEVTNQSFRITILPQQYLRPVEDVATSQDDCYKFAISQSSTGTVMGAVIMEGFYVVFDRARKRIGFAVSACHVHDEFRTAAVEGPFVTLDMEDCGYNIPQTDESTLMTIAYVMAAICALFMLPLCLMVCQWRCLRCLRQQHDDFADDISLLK

IC50 (BACE1 [1]): 15 nM | Kd (BACE1 [2]; 18° C., pH 4.5): 2 nM | residence time (BACE1 [2]; t1/2=0.693/koff): 16 min | Mouse P-gp ER (Mouse P-gp): 3.5
SMILES: Cc1cc(C#N)cnc1C(=O)Nc1ccc(F)c([C@@]2(C)N=C(N)O[C@H](C(F)(F)F)[C@@H]2F)n1 [Example 1, N-(6-((4R,5R,6S)-2-amino-5-fluoro-4-methyl-6-(trifluoromethyl)-5,6-dihydro-4H-1,3-oxazin-4-yl)-5-fluoropyridin-2-yl)-5-cyano-3-methylpicolinamide]
Plasma Aβ-lowering 0.2 mg/kg at 24 h (Plasma Aβ40; 24 h post dose): 57% | Plasma Aβ-lowering 0.2 mg/kg at 48 h (Plasma Aβ40; 48 h post dose): 50%
